Measured values as given in US20110250135A1, “Piperazine Derivatives for Binding and Imaging Amyloid Plaques and Their Use” (Bayer Schering Pharma Aktiengesellschaft, priority 2008, published 2011).

Experiments:
Aβ plaques = target: T1, Aβ plaques (Homo sapiens, UniProt P05067); experiment: Autoradiographical analysis of binding to cryosections from cortex of AD patients and controls; settings: F-18 labeled compound; Alzheimer's disease patients (AD) vs controls without Aβ plaques
T1 construct: controls without Aβ plaques; from tissue; host or cells: frontal lobe / cortex sections (frozen and paraffin) from AD patients, FTD patients and age-matched controls
T1 sequence (P05067 672-713 limits assumed): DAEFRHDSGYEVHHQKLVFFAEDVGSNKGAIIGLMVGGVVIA
Procedure, shortened: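 Frozen (18 μm) and deparaffinized paraffin (6 μm) frontal-lobe sections from Alzheimer's, frontotemporal dementia and age-matched control brains were incubated 1.5 h at room temperature with F-18 test compound at 10 Bq/μl in 25 mM Hepes pH 7.4, 0.1% BSA. Blocking used 1000-fold excess unlabeled compound; phosphoimager readout.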

[1] = Biodistribution: organ distribution of F-18 signal in mice; assay type: in vivo, male NMRI mice; settings: for Organ distribution of F-18 signal, intestine: intestine (with content); for Organ distribution of F-18 signal, stomach: stomach (without content)
Procedure, shortened: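 Male NMRI mice (~30 g, 3 per time point) received ca. 150 kBq of the test compound i.v. via tail vein. At 2, 5, 30, 60 and 240 min, urine and feces were collected and organs and tissues taken for gamma counting. Values are decay-corrected % ID/g ± SD.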

O=C(NCC(=O)N1CCN(c2ccc(OCc3ccccc3)cc2)CC1)c1cccnc1[18F] [Example 12c, N-{2-[4-(4-Benzyloxy-phenyl)-piperazin-1-yl]-2-oxoethyl}-2-[F-18]-fluoro-nicotinamide]
autoradiographical analysis of binding to cryosections from cortex (Aβ plaques): Specific binding in plaque-rich regions of AD samples | Organ distribution of F-18 signal, adrenals ([1]; 2 min post i.v. injection): 6.60 % ID/g | Organ distribution of F-18 signal, adrenals ([1]; 5 min post i.v. injection): 10.38 % ID/g | Organ distribution of F-18 signal, adrenals ([1]; 30 min post i.v. injection): 2.77 % ID/g | Organ distribution of F-18 signal, adrenals ([1]; 60 min post i.v. injection): 1.55 % ID/g | Organ distribution of F-18 signal, adrenals ([1]; 240 min post i.v. injection): 0.40 % ID/g | Organ distribution of F-18 signal, blood ([1]; 2 min post i.v. injection): 1.78 % ID/g | Organ distribution of F-18 signal, blood ([1]; 5 min post i.v. injection): 1.90 % ID/g | Organ distribution of F-18 signal, blood ([1]; 30 min post i.v. injection): 1.30 % ID/g | Organ distribution of F-18 signal, blood ([1]; 60 min post i.v. injection): 0.70 % ID/g | Organ distribution of F-18 signal, blood ([1]; 240 min post i.v. injection): 0.09 % ID/g | Organ distribution of F-18 signal, brain ([1]; 2 min post i.v. injection): 5.37 % ID/g | Organ distribution of F-18 signal, brain ([1]; 5 min post i.v. injection): 4.60 % ID/g | Organ distribution of F-18 signal, brain ([1]; 30 min post i.v. injection): 1.28 % ID/g | Organ distribution of F-18 signal, brain ([1]; 60 min post i.v. injection): 0.60 % ID/g | Organ distribution of F-18 signal, brain ([1]; 240 min post i.v. injection): 0.07 % ID/g | Organ distribution of F-18 signal, fat ([1]; 2 min post i.v. injection): 1.00 % ID/g | Organ distribution of F-18 signal, fat ([1]; 5 min post i.v. injection): 1.92 % ID/g | Organ distribution of F-18 signal, fat ([1]; 30 min post i.v. injection): 1.89 % ID/g | Organ distribution of F-18 signal, fat ([1]; 60 min post i.v. injection): 1.29 % ID/g | Organ distribution of F-18 signal, fat ([1]; 240 min post i.v. injection): 0.11 % ID/g | Organ distribution of F-18 signal, femur ([1]; 2 min post i.v. injection): 1.70 % ID/g | Organ distribution of F-18 signal, femur ([1]; 5 min post i.v. injection): 1.63 % ID/g | Organ distribution of F-18 signal, femur ([1]; 30 min post i.v. injection): 5.55 % ID/g | Organ distribution of F-18 signal, femur ([1]; 60 min post i.v. injection): 7.65 % ID/g | Organ distribution of F-18 signal, femur ([1]; 240 min post i.v. injection): 7.96 % ID/g | Organ distribution of F-18 signal, heart ([1]; 2 min post i.v. injection): 4.76 % ID/g | Organ distribution of F-18 signal, heart ([1]; 5 min post i.v. injection): 4.28 % ID/g | Organ distribution of F-18 signal, heart ([1]; 30 min post i.v. injection): 1.52 % ID/g | Organ distribution of F-18 signal, heart ([1]; 60 min post i.v. injection): 0.69 % ID/g | Organ distribution of F-18 signal, heart ([1]; 240 min post i.v. injection): 0.08 % ID/g | Organ distribution of F-18 signal, intestine ([1]; 2 min post i.v. injection): 1.78 % ID/g | Organ distribution of F-18 signal, intestine ([1]; 5 min post i.v. injection): 2.44 % ID/g | Organ distribution of F-18 signal, intestine ([1]; 30 min post i.v. injection): 6.62 % ID/g | Organ distribution of F-18 signal, intestine ([1]; 60 min post i.v. injection): 8.88 % ID/g | Organ distribution of F-18 signal, intestine ([1]; 240 min post i.v. injection): 10.54 % ID/g | Organ distribution of F-18 signal, kidney ([1]; 2 min post i.v. injection): 7.70 % ID/g | Organ distribution of F-18 signal, kidney ([1]; 5 min post i.v. injection): 7.76 % ID/g | Organ distribution of F-18 signal, kidney ([1]; 30 min post i.v. injection): 7.88 % ID/g | Organ distribution of F-18 signal, kidney ([1]; 60 min post i.v. injection): 3.63 % ID/g | Organ distribution of F-18 signal, kidney ([1]; 240 min post i.v. injection): 0.58 % ID/g | Organ distribution of F-18 signal, liver ([1]; 2 min post i.v. injection): 5.84 % ID/g | Organ distribution of F-18 signal, liver ([1]; 5 min post i.v. injection): 8.93 % ID/g | Organ distribution of F-18 signal, liver ([1]; 30 min post i.v. injection): 8.20 % ID/g | Organ distribution of F-18 signal, liver ([1]; 60 min post i.v. injection): 6.01 % ID/g | Organ distribution of F-18 signal, liver ([1]; 240 min post i.v. injection): 2.40 % ID/g | Organ distribution of F-18 signal, lung ([1]; 2 min post i.v. injection): 3.52 % ID/g | Organ distribution of F-18 signal, lung ([1]; 5 min post i.v. injection): 3.73 % ID/g | Organ distribution of F-18 signal, lung ([1]; 30 min post i.v. injection): 1.78 % ID/g | Organ distribution of F-18 signal, lung ([1]; 60 min post i.v. injection): 0.79 % ID/g | Organ distribution of F-18 signal, lung ([1]; 240 min post i.v. injection): 0.15 % ID/g | Organ distribution of F-18 signal, muscle ([1]; 2 min post i.v. injection): 2.48 % ID/g | Organ distribution of F-18 signal, muscle ([1]; 5 min post i.v. injection): 17.41 % ID/g | Organ distribution of F-18 signal, muscle ([1]; 30 min post i.v. injection): 0.88 % ID/g | Organ distribution of F-18 signal, muscle ([1]; 60 min post i.v. injection): 0.47 % ID/g | Organ distribution of F-18 signal, muscle ([1]; 240 min post i.v. injection): 0.06 % ID/g | Organ distribution of F-18 signal, pancreas ([1]; 2 min post i.v. injection): 3.58 % ID/g | Organ distribution of F-18 signal, pancreas ([1]; 5 min post i.v. injection): 4.30 % ID/g | Organ distribution of F-18 signal, pancreas ([1]; 30 min post i.v. injection): 1.55 % ID/g | Organ distribution of F-18 signal, pancreas ([1]; 60 min post i.v. injection): 0.75 % ID/g | Organ distribution of F-18 signal, pancreas ([1]; 240 min post i.v. injection): 0.12 % ID/g | Organ distribution of F-18 signal, skin ([1]; 2 min post i.v. injection): 1.25 % ID/g | Organ distribution of F-18 signal, skin ([1]; 5 min post i.v. injection): 1.23 % ID/g | Organ distribution of F-18 signal, skin ([1]; 30 min post i.v. injection): 1.51 % ID/g | Organ distribution of F-18 signal, skin ([1]; 60 min post i.v. injection): 0.66 % ID/g | Organ distribution of F-18 signal, skin ([1]; 240 min post i.v. injection): 0.08 % ID/g | Organ distribution of F-18 signal, spleen ([1]; 2 min post i.v. injection): 1.32 % ID/g | Organ distribution of F-18 signal, spleen ([1]; 5 min post i.v. injection): 2.08 % ID/g | Organ distribution of F-18 signal, spleen ([1]; 30 min post i.v. injection): 0.87 % ID/g | Organ distribution of F-18 signal, spleen ([1]; 60 min post i.v. injection): 0.42 % ID/g | Organ distribution of F-18 signal, spleen ([1]; 240 min post i.v. injection): 0.06 % ID/g | Organ distribution of F-18 signal, stomach ([1]; 2 min post i.v. injection): 3.14 % ID/g | Organ distribution of F-18 signal, stomach ([1]; 5 min post i.v. injection): 3.52 % ID/g | Organ distribution of F-18 signal, stomach ([1]; 30 min post i.v. injection): 1.91 % ID/g | Organ distribution of F-18 signal, stomach ([1]; 60 min post i.v. injection): 1.89 % ID/g | Organ distribution of F-18 signal, stomach ([1]; 240 min post i.v. injection): 0.71 % ID/g | Organ distribution of F-18 signal, tail ([1]; 2 min post i.v. injection): 12.72 % ID/g | Organ distribution of F-18 signal, tail ([1]; 5 min post i.v. injection): 6.80 % ID/g | Organ distribution of F-18 signal, tail ([1]; 30 min post i.v. injection): 2.72 % ID/g | Organ distribution of F-18 signal, tail ([1]; 60 min post i.v. injection): 3.08 % ID/g | Organ distribution of F-18 signal, tail ([1]; 240 min post i.v. injection): 1.30 % ID/g | Organ distribution of F-18 signal, testicle ([1]; 2 min post i.v. injection): 1.21 % ID/g | Organ distribution of F-18 signal, testicle ([1]; 5 min post i.v. injection): 1.79 % ID/g | Organ distribution of F-18 signal, testicle ([1]; 30 min post i.v. injection): 1.09 % ID/g | Organ distribution of F-18 signal, testicle ([1]; 60 min post i.v. injection): 0.58 % ID/g | Organ distribution of F-18 signal, testicle ([1]; 240 min post i.v. injection): 0.08 % ID/g | Organ distribution of F-18 signal, thyroid ([1]; 2 min post i.v. injection): 3.59 % ID/g | Organ distribution of F-18 signal, thyroid ([1]; 5 min post i.v. injection): 3.10 % ID/g | Organ distribution of F-18 signal, thyroid ([1]; 30 min post i.v. injection): 1.92 % ID/g | Organ distribution of F-18 signal, thyroid ([1]; 60 min post i.v. injection): 1.27 % ID/g | Organ distribution of F-18 signal, thyroid ([1]; 240 min post i.v. injection): 0.41 % ID/g
